Measurements reported in US9102599B2, “N-((3-benzyl)-2,2-(bis-phenyl)-propan-1-amine derivatives as CETP inhibitors for the treatment of atherosclerosis and cardiovascular diseases” (Bristol-Myers Squibb Company, priority 2006, dated 2015).

Target: purified human recombinant CETP (Homo sapiens (Human), UniProt P11597)
Assay: CETP Scintillation Proximity Assay
Type: biochemical
Conditions: CETP-dependent cholesterol ester transfer from 3H-CE/HDL to biotinylated LDL, 37° C.; read-out: CETP SPA IC50
Experimental: CETP Scintillation Proximity Assay
Dilutions of compounds in DMSO (1 μl) are added to BD plates (#353232). To this is added 20 μl of a mixture containing ^3H-CE/HDL (0.15 μl), biotinylated LDL (˜5 μg protein/ml final concentration) and unlabeled HDL (16 μg/ml final concentration) in a buffer containing 50 mM HEPES, pH 7.4, 150 mM NaCl and 0.05% sodium azide. Reactions are initiated by the addition of 10 μl of buffer containing purified human recombinant CETP, and incubated at 37° C. At the end of the reaction, 60 μl of LEADseeker beads (#RPNQ0261, 2 mg/ml in buffer containing 1 mg/ml BSA and 0.05 mg protein/ml HDL) are added, the plates are covered and subsequently read. Background activity is determined in a set of wells that receive buffer but no CETP. The level of inhibition is determined by comparing the readings in wells that contain compound to the readings in control wells containing DMSO.

Sequence of purified human recombinant CETP (P11597 18-493): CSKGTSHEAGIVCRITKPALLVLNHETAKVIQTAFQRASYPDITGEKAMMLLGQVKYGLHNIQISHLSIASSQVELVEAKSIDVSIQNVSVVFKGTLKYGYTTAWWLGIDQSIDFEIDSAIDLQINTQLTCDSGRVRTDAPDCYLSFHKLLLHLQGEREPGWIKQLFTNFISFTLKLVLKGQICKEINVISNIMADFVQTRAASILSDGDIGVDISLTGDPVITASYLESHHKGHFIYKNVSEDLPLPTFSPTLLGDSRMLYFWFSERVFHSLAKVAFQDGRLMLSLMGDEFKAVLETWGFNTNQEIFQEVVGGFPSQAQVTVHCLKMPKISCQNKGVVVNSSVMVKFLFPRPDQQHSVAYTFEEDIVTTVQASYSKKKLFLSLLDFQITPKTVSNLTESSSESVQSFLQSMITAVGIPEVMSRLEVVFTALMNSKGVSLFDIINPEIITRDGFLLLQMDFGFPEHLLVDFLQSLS

Row | IC50 | Compound
1 | 9 nM | O[C@H](CNC[C@@](Cc1ccccc1)(c1cc(F)cc(OC(F)(F)C(F)F)c1)c1ccc(Cl)cn1)C(F)(F)F (stereo in doubt) [Example 2, (R)-3-OR)-2-(5-chloropyridin-2-yl)-2-(3-fluoro-5-(1,1,2,2-tetrafluoroethoxy)phenyl)-3-phenylpropylamino)-1,1,1-trifluoropropan-2-ol]
2 | 4360 nM | O=C(NC[C@@](Cc1ccccc1)(c1cc(F)cc(C(F)(F)F)c1)c1ccc(F)cn1)[C@@](O)(c1ccccc1)C(F)(F)F [Example 5, (S)-3,3,3-trifluoro-N—((R)-2-(3-fluoro-5-(trifluoromethyl)phenyl)-2-(5-fluoropyridin-2-yl)-3-phenylpropyl)-2-hydroxy-2-phenylpropanamide]
3 | 30 nM | O[C@H](CNC[C@@](Cc1ccccc1)(c1cc(F)cc(C(F)(F)F)c1)c1ccc(F)cn1)C(F)(F)F [Example 6, (R)-1,1,1-trifluoro-3-((R)-2-(3-fluoro-5-(trifluoromethyl)phenyl)-2-(5-fluoropyridin-2-yl)-3-phenylpropylamino)propan-2-ol]
4 | 1430 nM | O=C(NCC(Cc1ccccc1)(c1cccc(OC(F)(F)F)c1)c1cccc(OC(F)(F)F)c1)C1CC1(F)F (stereo not drawn) [Example 11, 2,2-difluoro-N-(3-phenyl-2,2-bis(3-(trifluoromethoxy)phenyl)propyl)cyclopropanecarboxamide]
5 | 132 nM | O=C(NCC(F)(F)F)NCC(Cc1ccccc1)(c1cccc(OC(F)(F)F)c1)c1cccc(OC(F)(F)F)c1 [Example 27, 1-(3-phenyl-2,2-bis(3-(trifluoromethoxy)phenyl)propyl)-3-(2,2,2-trifluoroethyl)urea]
6 | 134 nM | Cc1cc(CC(CNC[C@H](O)C(F)(F)F)(c2cccc(OC(F)(F)F)c2)c2cccc(OC(F)(F)F)c2)no1 [Example 43, (S)-1,1,1-trifluoro-3-(3-(5-methylisoxazol-3-yl)-2,2-bis(3-(trifluoromethoxy)phenyl)propylamino)propan-2-ol]
7 | 19 nM | O[C@H](CNCC(Cc1ccccn1)(c1cccc(OC(F)(F)F)c1)c1cccc(OC(F)(F)F)c1)C(F)(F)F [Example 44, (R)-1,1,1-trifluoro-3-(3-(pyridin-2-yl)-2,2-bis(3-(trifluoromethoxy)phenyl)propylamino)propan-2-ol]
8 | 2810 nM | O[C@@H](CN(C[C@H](O)C(F)(F)F)CC(Cc1ccccc1)(c1cccc(OC(F)(F)F)c1)c1cccc(OC(F)(F)F)c1)C(F)(F)F [Example 45, (2S,2′S)-3,3′-(3-phenyl-2,2-bis(3-(trifluoromethoxy)phenyl)propylazanediyl)bis(1,1,1-trifluoropropan-2-ol)]
9 | 14 nM | O[C@H](CNCC(Cc1ccccc1)(c1cccc(OC(F)(F)F)c1)c1cccc(OC(F)(F)F)c1)C(F)(F)F [Example 47, (R)-1,1,1-trifluoro-3-(3-phenyl-2,2-bis(3-(trifluoromethoxy)phenyl)propylamino)propan-2-ol]
10 | 9 nM | Cc1ccc(CC(CNC[C@@H](O)C(F)(F)F)(c2cccc(OC(F)(F)F)c2)c2cccc(OC(F)(F)F)c2)cc1 [Example 50, (R)-1,1,1-trifluoro-3-(3-p-tolyl-2,2-bis(3-(trifluoromethoxy)phenyl)propylamino)propan-2-ol]
11 | 25 nM | FC(F)(F)CCNCC(Cc1ccccc1)(c1cccc(OC(F)(F)F)c1)c1cccc(OC(F)(F)F)c1 [Example 53, 3,3,3-trifluoro-N-(3-phenyl-2,2-bis(3-(trifluoromethoxy)phenyl)propyl)propan-1-amine]
12 | 184 nM | Oc1c(F)cccc1CNCC(Cc1ccccc1)(c1cccc(OC(F)(F)F)c1)c1cccc(OC(F)(F)F)c1 [Example 94, 2-fluoro-6-((3-phenyl-2,2-bis(3-(trifluoromethoxy)phenyl)propylamino)methyl)phenol]
13 | 248 nM | FC(F)(F)Oc1cccc(C(CNc2ncc(N3CCOCC3)cn2)(Cc2ccccc2)c2cccc(OC(F)(F)F)c2)c1 [Example 112, 5-morpholino-N-(3-phenyl-2,2-bis(3-(trifluoromethoxy)phenyl)propyl)pyrimidin-2-amine]
14 | 129 nM | O=S(=O)(CC(F)(F)F)NCC(Cc1ccccc1)(c1cccc(OC(F)(F)F)c1)c1cccc(OC(F)(F)F)c1 [Example 122, 2,2,2-trifluoro-N-(3-phenyl-2,2-bis(3-(trifluoromethoxy)phenyl)-propyl)ethanesulfonamide]
15 | 1090 nM | isopropyl 3-phenyl-2,2-bis(3- (trifluoromethoxy)phenyl)- propylcarbamate [Example 133]
